The subject of one test is MDR P. aeruginosa. The test is described as follows: MIC against CF isolates (Example 7, Table 18). It counts as cell-based. Conditions: Pseudomonas aeruginosa, Multi-drug resistant.
Another test relates to Achromobacter spp. Briefly: MIC against CF isolates (Example 7, Table 18). As to conditions: strain AX4, A. xylosoxidans. Format: cell-based.
Another test relates to K. pneumoniae. The test is described as follows: Broth microdilution MIC (Example 5). Format: cell-based, Klebsiella pneumoniae. Conditions: Klebsiella pneumoniae. As for the experimental part:
(§1) Test and Comparator Agents: The test agents were stored at room temperature until assayed. […] The stock solutions were allowed to stand for at least 1 hr prior to use to auto-sterilize.
(§2) TestMedia: Test media were prepared and stored in accordance with guidelines from CLSI (4, 6, 7).
Broth Microdilution MC Testing (Aerobic Bacteria and Yeast): The broth microdilution assay method employed for the susceptibility testing of aerobic bacteria (excluding N. gonorrhoeae which was evaluated by agar dilution) and yeast essentially followed the procedures described by CLSI (3, 4, 7, 8) and employed automated liquid handlers to conduct serial dilutions and liquid transfers. […] These would become the ‘mother plates’ from which ‘daughter’ or test plates would be prepared. The drugs (300 μL at 40× the desired top concentration in the test plates) were dispensed into the appropriate well in Column 1 of the mother plates. The Biomek 2000 was used to make serial two-fold dilutions through Column 11 in the “mother plate”. The wells of Column 12 contained no drug and ultimately served as the organism growth control wells.
The daughter plates were prepared using the Biomek FX which transferred 5 μL of drug solution from each well of a mother plate to the corresponding well of the correct daughter plate in a single step.
A standardized inoculum of each organism was prepared per CLSI methods (3, 7). Isolated colonies of each test isolate were picked from the primary plate and a suspension was prepared to equal a 0.5 McFarland turbidity standard. Standardized suspensions were then diluted […] (1:100 for yeast, 1:20 for bacteria). After dilution, the inoculum suspensions were then transferred to compartments of sterile reservoirs divided by length (Beckman Coulter), and the Biomek 2000 was used to inoculate all plates. Daughter plates were placed on the Biomek 2000 in reverse orientation so that plates were inoculated from low to high drug concentration.
The Biomek 2000 delivered 10 μL of standardized inoculum into each well of the appropriate daughter plate for an additional 1:20 dilution.
Plates were stacked 4 high, covered with a lid on the top plate, placed into plastic bags, and incubated at 35° C. for approximately 24-48 hr for all yeast isolates and 16-24 hr for aerobic bacteria. Plates were viewed from the bottom using a plate viewer. […] MIC endpoints for the test agents and control compounds were read per CLSI criteria (3, 7).
For orientation: Dilution methods test growth across graded concentrations, often in twofold steps.

A further test concerns E. cloacae. Briefly: Broth microdilution MIC (Example 5). Conditions: Enterobacter cloacae, ATCCBAA2468. It counts as cell-based, Enterobacter cloacae. The procedure:
as §1, §2
Broth Microdilution MC Testing (Aerobic Bacteria and Yeast): The broth microdilution assay method employed for the susceptibility testing of aerobic bacteria (excluding N. gonorrhoeae which was evaluated by agar dilution) and yeast essentially followed the procedures described by CLSI (3, 4, 7, 8) and employed automated liquid handlers to conduct serial dilutions and liquid transfers. […] These would become the ‘mother plates’ from which ‘daughter’ or test plates would be prepared. The drugs (300 μL at 40× the desired top concentration in the test plates) were dispensed into the appropriate well in Column 1 of the mother plates. The Biomek 2000 was used to make serial two-fold dilutions through Column 11 in the “mother plate”. […]
Plates were stacked 4 high, covered with a lid on the top plate, placed into plastic bags, and incubated at 35° C. for approximately 24-48 hr for all yeast isolates and 16-24 hr for aerobic bacteria. […] MIC endpoints for the test agents and control compounds were read per CLSI criteria (3, 7).

For the next test, the system named is anaerobes. Briefly: MIC summary, anaerobes (Example 5). Format: cell-based, Bacteroides fragilis and Clostridium difficile. As to conditions: read-out: MIC values across isolates. The procedure:
Test and Comparator Agents: The test agents were stored at room temperature until assayed. All test agents were suspended and diluted in 100% dimethylsulfoxide (DMSO), and were ultimately tested at a final concentration of 0.06-64 μg/mL. The stock solutions were allowed to stand for at least 1 hr prior to use to auto-sterilize.
The susceptibility of anaerobic bacteria was determined by agar dilution using Brucella Agar (BD/BBL; Lot No. 5237692) supplemented with 5 μg/mL hemin (Sigma, St. Louis, MO; Lot No. 108K1088), 1 μg/mL Vitamin K1 and 5% (v/v) laked sheep blood (Cleveland Scientific, Bath, OH; Lot No. 322799).
Agar Dilution MIC Testing (Anaerobic Bacteria and Gonococci): MIC values for anaerobic bacteria were determined using a reference agar dilution method as described by CLSI (6). Organisms were grown at 35° C. in the Bactron II Anaerobic Chamber (Shel Lab, Cornelius, OR) for approximately 48 hr prior to the assay. Drug dilutions and drug-supplemented agar plates were prepared manually per CLSI (6). The plates were allowed to stand at room temperature for 1 hr to allow the agar surface to dry and pre-reduced for approximately 1 hr in the anaerobe chamber prior to inoculation. Each isolate was suspended to the equivalent of a 0.5 McFarland standard in Brucella broth using a turbidity meter (Dade Behring MicroScan, West Sacramento, CA). […] The MIC was read per CLSI guidelines (6).

In test [1] the test system is Pseudomonas aeruginosa biofilms (MR14, AG14). The test is described as follows: Activity against biofilms (Example 7). It counts as cell-based. As to conditions: MR14, MDR CF-isolate of P. aeruginosa; at 25 ng/mL.
Test [2] concerns Achromobacter spp. biofilm. Briefly: Activity against biofilms (Example 7). Format: cell-based. Conditions: tested up to 250 μg/mL.

Where two headings read alike, the source gives them in different places.

The MIC is the lowest concentration that inhibits growth of the organism. On to `NCC[C@H](O)C(=O)N[C@@H]1C[C@H](N)[C@@H](O[C@H]2O[C@H](CN)[C@@H](O)[C@H](O)[C@H]2O)[C@H](O)[C@H]1O[C@H]1O[C@H](CO)[C@@H](O)[C@H](N)[C@H]1O` [Amikacin], for which the minimum inhibitory concentration (MIC) against MDR P. aeruginosa (strain AGR14, P. aeruginosa) was > 64 µg/mL; against MDR P. aeruginosa (strain MR14, P. aeruginosa) it was > 64 µg/mL; in the test on Achromobacter spp., > 64 µg/mL.

For `OCC(S)CS.[Bi]` (stereo not drawn) [MB-2B, bismuth-2,3-dimercaptopropanol], the minimal inhibitory concentration (MIC) amounted to 16 µg/mL in the test with K. pneumoniae (K. pneumoniae MMX 4622, KPC-2); 32 µg/mL with K. pneumoniae (K. pneumoniae MMX 4623, KPC-2); 16 µg/mL against K. pneumoniae (K. pneumoniae MMX 4653, KPC-3); 8 µg/mL against K. pneumoniae (K. pneumoniae MMX 4683, KPC-2); 32 µg/mL in the test on K. pneumoniae (K. pneumoniae MMX 4684, ESBL, read-out: MIC); 8 µg/mL in the test with K. pneumoniae (K. pneumoniae MMX 4685, ESBL, read-out: MIC). Moreover, the MIC is 8 µg/mL in the test on K. pneumoniae (K. pneumoniae MMX 4694, KPC-3); 16 µg/mL in the test with K. pneumoniae (K. pneumoniae MMX 5979, NDM-1); 32 µg/mL against E. cloacae; 2 to 16 µg/mL with anaerobes.

Regarding `CC(S)C(C)S.[Bi]` (stereo not drawn) [MB-6, bismuth-2,3-butanedithiol], the “Reduction in biofilm cell viability” value in test [1] stood at 2 logs. Also, the “Reduction in viable biofilm cells” value in test [2] was 5 log.
